pEC50: −log10 of the molar value.
Tested on: MCF7
Experiment: Inhibition of MCF-7 cell proliferation
Type: functional, cell-based
Settings: Homo sapiens

pEC50: 7.40
Compound: Oc1ccc2c(c1)OC(c1ccc(OCCN3CCCCC3)cc1)c1c-2oc2cc(O)ccc12 (stereo unspecified)
